Test results as given in patent US11278582B2, “Compositions containing plant extracts and applications thereof” (TCI CO., LTD., priority 2017, dated 2022).

System: adipocytes differentiated from OP9 mouse stromal cell line (ATCC CRL-2749)
Assay: Oil red O staining of the fat content of adipocytes treated with plant extracts or combinations
Type: cell-based
Conditions: for Relative fat content: 7-10 days, relative to control group (100%)
Description: The neutral fat content of cells was determined by oil red O staining. Prior to staining, the cells were washed twice with PBS and then fixed with 10% formaldehyde at room temperature for 30 minutes. The fixed cells were washed twice with PBS and rinsed with 60% isopropanol for 1 minute. Thereafter, the cells were stained with an oil red O staining solution (1.8 mg/ml oil red O dissolved in 60% isopropanol aqueous solution) for 1 hour, and then treated with 60% isopropanol for 5 seconds to remove excess dye. Lastly, 100% isopropanol was added to the cells and incubated with shaking for 10 minutes to dissolve the intracellular dye, and the absorbance of the cell suspension at 510 nm was measured using an ELISA (enzyme-linked immunosorbent assay) reader (BioTek). The statistical significance of differences between data was determined by Student's t-test using the Excel software.
Briefly, OP9 cells were seeded at 8×10^4 cells/well in 24-well culture plates, where each well contained 500 μl of pre-adipocyte expansion medium (90% DMEM, 20% FBS, and 1% penicillin/streptomycin), and cultured at 37° C. for 7 days. The medium was refreshed every 3 days during cell culture with adipocyte differentiation medium (90% DMEM medium, 20% FBS, and 1% penicillin/streptomycin). After 7 days, complete differentiation into adipocytes were confirmed by examining oil droplets formed in the cells using a microscope (ZEISS; at 400× magnification). Thereafter, each of the plant extracts or each of the compositions containing plant extracts, listed in TABLE 1, was added to the cells, which were then cultured at 37° C. for 7-10 days, during which the adipocyte differentiation medium was refreshed every 3 days. Finally, the medium was removed, and the cells of each group were washed with PBS and subjected to oil red O staining for determination of the fat content. The relative fat content is a ratio of the cellular fat content of the experimental group relative to that of the control group (expressed as a percentage). […]

SMILES | Relative fat content (single treatment 0.5 mg/ml) [%] | Change of the fat content of adipocytes compared to the control group (in words) (sole treatment, concentrations as in TABLE 1, Student's t-test) | Relative fat content (single treatment 0.015625 mg/ml) [%]
CC1=C(/C=C/C(C)=C/C=C/C(C)=C/C=C/C=C(C)/C=C/C=C(C)/C=C/C2=C(C)CCCC2(C)C)C(C)(C)CCC1 [β-carotene] | 99.00 | did not significantly reduce the fat content | –
CC(C)=CCC/C(C)=C/C=C/C(C)=C/C=C/C(C)=C/C=C/C=C(C)/C=C/C=C(C)/C=C/C=C(\C)CCC=C(C)C [Lycopene] | – | – | 73.34
